The values below come from patent US9718854B2, “Selective glycosidase inhibitors and uses thereof” (priority 2011, dated 2017).

The target of one test is O-GlcNAcase (Rattus norvegicus (Rat), UniProt Q8VIJ5). Put plainly: Cell-based ELISA of O-GlcNAcylated protein (RL-2 antibody) for cellular O-GlcNAcase inhibition. From the text:
Assay for Determination of Cellular Activity for Compounds that Inhibit O-GlcNAcase Activity
Inhibition of O-GlcNAcase, which removes O-GlcNAc from cellular proteins, results in an increase in the level of O-GlcNAcylated protein in cells. An increase in O-GlcNAcylated protein can be measured by an antibody, such as RL-2, that binds to O-GlcNAcylated protein. The amount of O-GlcNAcylated protein:RL2 antibody interaction can be measured by enzyme linked immunosorbant assay (ELISA) procedures.
Compounds to be tested were dissolved in DMSO, either 2 or 10 mM stock solution, and then diluted with DMSO and water in a two-step process using a Tecan workstation. […] If desired, the total protein concentration of samples was determined using 20 μL of the sample using the BCA method. […]
The amount of O-GlcNAcylated protein, as detected by the ELISA assay, was plotted for each concentration of test compound using standard curve fitting algorithms for sigmoidal dose response curves. The values for a four parameter logistic curve fit of the data were determined, with the inflection point of the curve being the potency value for the test compound.

Another test concerns the target human O-GlcNAcase (Homo sapiens (Human), UniProt O60502). The test can be described thus: biochemical. The settings on record: purified human O-GlcNAcase, 4-methylumbelliferyl N-acetyl-β-D-glucosaminide substrate, pH 7.0, Cheng-Prusoff; read-out: Fluorescence-based hOGA Ki. On the procedure:
Assay for Determination of KI Values for Inhibition of O-GlcNAcase Activity
Experimental Procedure for Kinetic Analyses:
Enzymatic reactions were carried out in a reaction containing 50 mM NaH2PO4, 100 mM NaCl and 0.1% BSA (pH 7.0) using 2 mM 4-Methylumbelliferyl N-acetyl-β-D-glucosaminide dihydrate (Sigma M2133) dissolved in ddH2O, as a substrate. The amount of purified human O-GlcNAcase enzyme used in the reaction was 0.7 nM. Test compound of varying concentrations was added to the enzyme prior to initiation of the reaction. The reaction was performed at room temperature in a 96-well plate and was initiated with the addition of substrate. […] The slope of product production was determined for each concentration of compound tested and plotted, using standard curve fitting algorithms for sigmoidal dose response curves. The values for a four parameter logistic curve fit of the data were determined.

In general, EC50 refers to the concentration at which the effect is half-maximal. One may read the Ki as the equilibrium dissociation constant of an inhibitor or competing ligand from its target.

Read-outs that look alike come from different tables or passages of the source.

Sequence of O-GlcNAcase (Q8VIJ5 whole entry): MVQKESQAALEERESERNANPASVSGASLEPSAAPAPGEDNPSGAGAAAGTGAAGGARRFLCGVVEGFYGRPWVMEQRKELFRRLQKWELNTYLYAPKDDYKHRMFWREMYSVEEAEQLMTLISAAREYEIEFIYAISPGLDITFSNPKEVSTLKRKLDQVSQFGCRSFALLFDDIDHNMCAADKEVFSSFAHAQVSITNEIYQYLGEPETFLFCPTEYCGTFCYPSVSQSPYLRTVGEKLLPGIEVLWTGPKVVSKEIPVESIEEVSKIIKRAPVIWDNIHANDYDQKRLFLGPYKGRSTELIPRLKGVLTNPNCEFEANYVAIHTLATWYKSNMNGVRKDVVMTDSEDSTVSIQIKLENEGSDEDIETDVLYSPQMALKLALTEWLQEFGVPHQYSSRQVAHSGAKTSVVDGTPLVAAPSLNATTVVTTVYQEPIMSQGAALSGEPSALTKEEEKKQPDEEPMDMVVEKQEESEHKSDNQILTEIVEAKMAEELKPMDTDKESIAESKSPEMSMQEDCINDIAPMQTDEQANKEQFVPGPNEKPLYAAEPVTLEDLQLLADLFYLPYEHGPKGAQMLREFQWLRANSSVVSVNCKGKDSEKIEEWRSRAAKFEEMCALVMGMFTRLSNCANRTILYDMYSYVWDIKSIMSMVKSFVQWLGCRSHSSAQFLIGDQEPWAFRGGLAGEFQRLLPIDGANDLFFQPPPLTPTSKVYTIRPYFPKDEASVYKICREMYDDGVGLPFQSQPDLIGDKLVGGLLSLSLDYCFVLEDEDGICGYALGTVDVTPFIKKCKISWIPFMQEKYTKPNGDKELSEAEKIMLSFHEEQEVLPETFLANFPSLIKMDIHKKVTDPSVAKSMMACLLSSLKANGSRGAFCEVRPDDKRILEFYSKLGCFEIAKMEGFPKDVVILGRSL
Sequence of human O-GlcNAcase (O60502 whole entry): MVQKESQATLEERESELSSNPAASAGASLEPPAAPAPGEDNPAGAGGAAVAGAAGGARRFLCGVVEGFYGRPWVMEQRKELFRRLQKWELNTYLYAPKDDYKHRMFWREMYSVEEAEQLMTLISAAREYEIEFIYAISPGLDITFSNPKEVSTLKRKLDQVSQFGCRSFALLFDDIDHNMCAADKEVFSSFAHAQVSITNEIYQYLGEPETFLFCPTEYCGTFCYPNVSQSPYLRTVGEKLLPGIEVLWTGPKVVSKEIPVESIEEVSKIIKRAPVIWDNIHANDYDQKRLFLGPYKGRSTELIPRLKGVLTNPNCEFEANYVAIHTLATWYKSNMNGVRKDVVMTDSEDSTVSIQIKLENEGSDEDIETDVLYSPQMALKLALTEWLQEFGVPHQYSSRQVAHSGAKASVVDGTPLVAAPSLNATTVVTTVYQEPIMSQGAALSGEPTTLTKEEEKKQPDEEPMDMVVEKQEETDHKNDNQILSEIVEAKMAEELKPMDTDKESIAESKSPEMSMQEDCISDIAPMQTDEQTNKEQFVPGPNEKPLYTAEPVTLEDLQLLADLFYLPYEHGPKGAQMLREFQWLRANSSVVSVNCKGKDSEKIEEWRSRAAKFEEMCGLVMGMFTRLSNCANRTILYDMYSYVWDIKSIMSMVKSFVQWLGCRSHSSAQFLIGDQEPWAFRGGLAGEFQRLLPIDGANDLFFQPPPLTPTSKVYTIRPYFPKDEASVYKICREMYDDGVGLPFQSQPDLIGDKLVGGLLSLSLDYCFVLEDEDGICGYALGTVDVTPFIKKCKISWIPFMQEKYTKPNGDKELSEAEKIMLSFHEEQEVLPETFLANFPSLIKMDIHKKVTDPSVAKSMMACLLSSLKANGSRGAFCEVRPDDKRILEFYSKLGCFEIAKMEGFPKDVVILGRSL

For the compound `CNC1=N[C@@H]2[C@@H](O)[C@H](O)[C@@H](COC(=O)N(C)C)O[C@@H]2S1` [Example 9, ((3aR,5R,6S,7R,7aR)-6,7-dihydroxy-2-(methylamino)-5,6,7,7a-tetrahydro-3aH-pyrano[3,2-d]thiazol-5-yl)methyl dimethylcarbamate], the EC50 on O-GlcNAcase (rat PC-12 cells, 24 h treatment, O-GlcNAcylated protein detected with RL-2 antibody, read-out: Cell-based ELISA EC50) is 212 nM. `CNC1=N[C@@H]2[C@@H](O)[C@H](O)[C@@H](CNC3CCCC3)O[C@@H]2S1` [Example 37, (3aR,5R,6S,7R,7aR)-5-((cyclopentylamino)methyl)-2-(methylamino)-5,6,7,7a-tetrahydro-3aH-pyrano[3,2-d]thiazole-6,7-diol]: the EC50 on O-GlcNAcase was 3.7 nM. As for `CNC1=N[C@@H]2[C@@H](O)[C@H](O)[C@@H](CNCC#N)O[C@@H]2S1` [Example 53, 2-((((3aR,5R,6S,7R,7aR)-6,7-dihydroxy-2-(methylamino)-5,6,7,7a-tetrahydro-3aH-pyrano[3,2-d]thiazol-5-yl)methyl)amino)acetonitrile], at human O-GlcNAcase, the Ki was 5.4 nM.
